Where “and” joins values, the source holds several entries; their conditions need not be identical. Identical values can stand only once. Entries after “also recorded” stand apart in the source; their conditions may differ.
Assays:
mice embryos = experiment: In-vitro embryo development in Quinn's Advantage cleavage media; format: cell-based
Experimental: CBA male mice were bred with BL C57 female mice. The mice were kept on a 12 hours photoperiod schedule with unlimited water and food supply. About 6 to 8 weeks after receiving offspring, each female mouse was injected IP with 5IU of pregnant mare serum gonadotropin (PMSG).
After 48 hours each female mouse was injected IP with 5IU human chorionic gonadotropin (hCG). Male mice proven to be fertile were then put together with the superovulated females. The next morning the female mice were examined for the presence of copulatory plugs. Females that had copulatory plugs were euthanized after 24 hours (approximately 36 hours post-coitus) and embryos at 2 cell stage were retrieved from the oviducts as following: the oviducts were dissected in Quinn's Advantage cleavage media (SAGE, Origio, Denmark) and the embryos were transferred to 20 μL drops with Quinn's Advantage cleavage media (SAGE, Origio, Denmark) overlaid with mineral oil and cultured at 37.0° C. under 5% CO2 and atmospheric oxygen. The collected embryos continued to grow, i.e. in-vitro culture (IVC), until blastocyst/hatching stage. To test the effect of amorphous calcium carbonate, the Quinn's Advantage cleavage media (“cleavage media” hereinafter) was supplemented with different additives, i.e. amorphous calcium carbonate stabilized by polyphosphate (ACC-PP), crystalline calcium carbonate (CCC), polyphosphate (PP), phosphoserine (PS) or sodium carbonate ([…]). All supplements were added as a freshly prepared suspension; the preparation of the ACC supplements were performed under aseptic conditions. Untreated cleavage media (without addition of any additive) was used as a control (identified as Cont Q). The embryos were evaluated every day by microscope observation for a detection of the following stages: 2 cells, compactions stage, blastocysts formation and hatching stage. The fraction (in percent) of the embryos reached each stage was calculated (the number of 2 cells embryos was set as 100%).

[1] = tested on: spinal cord-dorsal root ganglia (SC-DRG) slices; experiment: Nerve fiber sprouting from SC-DRG co-cultures; format: cell-based, rat; conditions: Ca2+ 2 mM; 4 days of cultivation; portion of 6 explants
Experimental: Neural and Vascular Reconstruction Gel ([…] Labs proprietary) is composed of two main components: high molecular hyaluronic acid (HA, 3×10^6 Da, BTG, Israel) and laminin (Sigma). […] The gel has the texture of a viscous liquid, it adheres easily and successfully the embedded cells or explants to the plastic or glass substratum, and enabled nerve fiber outgrowth in a 3D pattern. All the experiments were carried out and authorized by the local ethics committee recognized by the Israeli authorities for animal experimentation. Stationary organotypic cultures of dorsal root ganglia (DRG) and spinal cord (SC) as well as cultures of dissociated brain cells were prepared from rat fetuses (15 days of gestation, Lewis inbred, Harlan, Israel). Immediately after dissection, the isolated tissues were cut with a […] tissue chopper into small slices (of 400 μm thickness). In these studies, two tissue culture strategies were used. […] In the second method, the tissue slices were further dissociated with a trypsin-EDTA solution for 30 min, and washed with a culture medium. Subsequently, the dissociated cells were added to a suspension of chitosan powder or gastrolith powder (micro carriers, MCs) and incubated in suspension at 37° C. for 4 days. […] The cultures were monitored by daily phase contrast microscopic observations starting from 24 hours after setting the cultures onward. […]

MBA-13 cells = experiment: Differentiation of MBA13 stem cells to osteoblasts (Alizarin red, alkaline phosphatase staining); format: cell-based; conditions: additional 1 mM calcium (total 2.488 mM); 10 days; gelatin coating
Experimental: Two days following thawing, MBA-13 cells (received from Prof. Dov Zipori, Weizmann Institute of Science) were re-suspended in recombinant trypsin solution and seeded on a 96 wells plate, (Day “0”) in a concentration of 1×10^4 cells/well using MSC Nutristem® XF basal medium (Biological Industries, cat #05-200-1A) supplemented with Mesenchymal stem cells (MSC) supplement mix medium (Biological Industries cat #05-201-06) in a ratio of 50 ml:300 μl. […] Row G in the plate was treated with MSCgo medium (total 1.488 mM calcium). Row H of the plate was treated with MSC NutriStem® XF nutrient basal medium+ supplement mix (total 1.488 mM calcium). On day 4, medium was exchanged with fresh preparations of ACC. […] Once the cells were fixated, two types of staining reagents were used to stain extracellular calcium or bone deposition in order to estimate osteoblasts functionality: (i) Alizarin red (Sigma A55333) and (ii) Alkaline Phosphatase (DAKO BCIP/NBT substrate system […]) as following: Alizarin red staining procedure-pH was adjusted to 4.2. Cells were washed twice with PBS and fixed with cold methanol for 5 minutes and then washed again with PBS. […] Then, washed 3 times with PBS and following removal of PBS remnants, 3 drops of BCIP/NBT kit solution was used to cover the cells including one empty well without any cells as control to quantify the assay. […]

skeletal muscle cultures = experiment: Myotube formation and contractility in healthy skeletal muscle cultures; format: cell-based, rat; conditions: added 1 mM, final Ca2+ 2 mM
Experimental: Stationary skeletal muscle cultures were prepared from healthy 1 day new born rat (Sprague Dawley, Harlan, Israel). The muscle tissue was dissected from posterior legs and was thoroughly minced. Digestion was performed with Trypsin-EDTA while gentle trituration. After 30 min the supernatant, containing dissociated cells, was collected and a fresh Trypsin-EDTA was added. This procedure was repeated two more times. Then, all supernatants were pooled, centrifuged, and the cell pellet was re-suspended in Proliferation Medium. Cells were seeded in a Gelatin coated 12 wells culture plates, 1×10^5 cells/well containing 1 mL of Proliferation Medium. Two days later, the medium was changed to Fusion Medium, which was then changed twice a week. The cultures were monitored by daily phase contrast microscopic observations from 24 hours after setting the cultures and onward.
Stock solution of 1% porcine gelatin in water, was sterilized by autoclave. Once cooled, 500 μl of the solution were added to each well of the 12-wells culture plat. After incubation for 20 min at room temperature, the excess solution was removed, and the cells were seeded.
For the proliferation stage, cells were cultured in: DMEM/F12 (containing 1 mM Ca^2+)+10% FBS, 25 μg/mL Gentamycin, and 2 mM L-Glutamine. […]

mdx cell line = conditions: final Ca2+ 2 mM
Experimental: Cells from the Mdx cell line were seeded in a Gelatin coated 12 wells culture plate, 3×10^4 cells/well containing 1 mL of Proliferation Medium. Two days later (˜66% confluence), the medium was changed to Fusion Medium which was changed twice a week. The various calcium preparations were separately added to the Fusion Medium according to the treatment described in Table 3. Cultures were enriched with the various calcium preparations, at Ca^2+ concentration of 1 mM. Since the medium already contained 1 mM of calcium ions, then the final concentration of Ca2+ was of 2 mM
The effects of the tested calcium preparations on cell proliferation, fusion to form myotubes and muscle contraction were monitored by daily phase contrast microscopic observation.

[2] = Example 15, 1.7 mM, pooled embryos of mice 3-6
[3] = Example 15, 1.7 mM, sibling embryos (mouse 1: CCC; mouse 2: ACC-PP, NaCO3)
[4] = Example 10, 1.7 mM, embryos of each of 4 mice grown separately, one line per mouse
[5] = Example 14, pooled embryos, 1.7 mM
[6] = Example 11, 1.6 mM, pooled embryos of mice 3-7
[7] = Example 12, pooled embryos, 1.6 mM

## O=C([O-])[O-].[Na+].[Na+] [NaCO3, sodium carbonate]
Mice embryos; Example 15, 1.7 mM
  embryonic development compared to control or ACC-PP: very poor embryonic development
Mice embryos; [2]
  8 cell/d2, number of embryos: 2
  Blast/d3, number of embryos: 0
  Blast/d4, number of embryos: 0
  Hatch/d4, number of embryos: 0
  Hatch/d4, portion of total number of embryos: (0) %
  comp/d2, number of embryos: 7
  degenerative, number of embryos: 1
  early Blast/d3, number of embryos: 0
Mice embryos; [3]
  8 cell/d2, number of embryos: 6
  Blast/d3, number of embryos: 2
  Blast/d4, number of embryos: 0
  Hatch/d4, number of embryos: 2
  Hatch/d4, portion of total number of embryos: (12.5) %
  comp/d2, number of embryos: 8
  degenerative, number of embryos: 2
  early Blast/d3, number of embryos: 14

## [Ca+2].[Cl-].[Cl-] [CaCl2, calcium chloride]
[1]
  Cultures with axonal regeneration (%): 50%
Mice embryos; Example 7 Test A, 1.7 mM
  Blast/d3, number of embryos: 16
  Blast/d3, portion of initial number of embryos: 64%
  Comp/d2, portion of initial number of embryos: 64%
  comp/d2, number of embryos: 16
Mice embryos; Example 7 Test B, 1.7 mM
  Blast/d3, number of embryos: 20
  Blast/d3, portion of initial number of embryos: 74%
  Comp/d2, portion of initial number of embryos: 70%
  Hatch/d4, number of embryos: 11
  Hatch/d4, portion of initial number of embryos: 40.7%
  comp/d2, number of embryos: 20
Mice embryos; Example 8, 1.7 mM
  Blast/d3, number of embryos: 8
  Blast/d3, portion of initial number of embryos: 80%
  Comp/d2, portion of initial number of embryos: 30%
  Hatch/d4, number of embryos: 3
  Hatch/d4, portion of initial number of embryos: 30%
  comp/d2, number of embryos: 3
Mice embryos; Example 9, 1.7 mM
  Blast/d3, number of embryos: 24
  Blast/d3, portion of initial number of embryos: 80%
  Comp/d2, portion of initial number of embryos: 53.3%
  Hatch/d4, number of embryos: 13
  Hatch/d4, portion of initial number of embryos: 43.3%
  comp/d2, number of embryos: 16
Mice embryos; Example 10, 1.7 mM, embryos of each of 4 mice (5 months old) grown separately, one line per mouse
  8Cell/d2, number of embryos: 0 (2×) and 4 and 2
Mice embryos; [4]
  Blast/d3, number of embryos: 2 and 5 and 12 and 1
  Blast/d3, portion of initial number of embryos: (8.3) %; also recorded: (22.2) %; also recorded: (50) %; also recorded: (66.7) %
  Hatch/d4, number of embryos: 0 (2×) and 3 and 7
  Hatch/d4, portion of initial number of embryos: (0) %; also recorded: (30) %; also recorded: (41.2) %
  comp/d2, number of embryos: 3 and 6 and 10 and 1
Mice embryos; Example 14, 1.7 mM
  effect on embryonic development (blastocysts and hatched blastocysts): negative effect on embryonic development
Mice embryos; [5]
  8 cell/d2, number of embryos: 6
  Blast/d3, number of embryos: 10
  Blast/d3, portion of initial number of embryos: 90.90%
  Hatch/d4, number of embryos: 4
  Hatch/d4, portion of initial number of embryos: 36.36%
  comp/d2, number of embryos: 5
MBA-13 cells
  Alizarin Red staining (calcium deposition): weak signal
Skeletal muscle cultures; 7 days
  muscle fibers after 7 days: fewer, thinner and shorter muscle fibers
Skeletal muscle cultures; dry powder suspended in water
  time to formation of myotubes: myotubes formation was observed later
Mdx cell line
  muscle contractions first observed, day after seeding: ≥ 10 days

## polyphosphate [PP]
Mice embryos; [6]
  8 cell/d2, number of embryos: 9
  Blast/d3, number of embryos: 20
  Blast/d3, portion of initial number of embryos: 54.1%
  Hatch/d4, number of embryos: 17
  Hatch/d4, portion of initial number of embryos: 45.9%
  comp/d2, number of embryos: 20
Mice embryos; [7]
  8 cell/d2, number of embryos: 6
  Blast/d3, number of embryos: 34
  Blast/d3, portion of initial number of embryos: 94.44%
  Hatch/d4, number of embryos: 16
  Hatch/d4, portion of initial number of embryos: 44.44%
  comp/d2, number of embryos: 30

— patent publication US12060573B2, “Stabilized amorphous calcium carbonate as a supplement for cell culture media” (AMORPHICAL LTD., priority 2016, dated 2024)
